Measurements taken from publication PMC3849818 (Journal of medicinal chemistry, 2013).

What was measured:
OX2 receptor = biological target: T1, OX2 receptor (Homo sapiens, UniProt O43614); assay: OX2 calcium mobilization functional assay; assay type: cell-based
T1 sequence (O43614 1-444): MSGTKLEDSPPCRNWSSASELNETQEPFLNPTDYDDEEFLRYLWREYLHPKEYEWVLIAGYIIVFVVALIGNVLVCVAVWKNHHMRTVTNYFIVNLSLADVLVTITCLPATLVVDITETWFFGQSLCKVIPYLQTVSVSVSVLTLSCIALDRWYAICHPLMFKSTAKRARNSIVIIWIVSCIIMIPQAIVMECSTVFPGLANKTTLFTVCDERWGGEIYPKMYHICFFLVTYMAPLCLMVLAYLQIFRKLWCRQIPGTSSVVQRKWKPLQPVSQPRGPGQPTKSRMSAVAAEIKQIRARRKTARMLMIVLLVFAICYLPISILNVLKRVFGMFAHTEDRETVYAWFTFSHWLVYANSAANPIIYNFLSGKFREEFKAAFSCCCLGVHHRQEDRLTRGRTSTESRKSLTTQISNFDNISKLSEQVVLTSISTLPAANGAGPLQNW

orexin 1 (OX1) receptor = biological target: T2, orexin 1 (OX1) receptor (Homo sapiens, UniProt O43613); assay: OX1 calcium mobilization functional assay; assay type: cell-based; details: for OX2/OX1: ratio of Ke values
T2 sequence (O43613 1-425): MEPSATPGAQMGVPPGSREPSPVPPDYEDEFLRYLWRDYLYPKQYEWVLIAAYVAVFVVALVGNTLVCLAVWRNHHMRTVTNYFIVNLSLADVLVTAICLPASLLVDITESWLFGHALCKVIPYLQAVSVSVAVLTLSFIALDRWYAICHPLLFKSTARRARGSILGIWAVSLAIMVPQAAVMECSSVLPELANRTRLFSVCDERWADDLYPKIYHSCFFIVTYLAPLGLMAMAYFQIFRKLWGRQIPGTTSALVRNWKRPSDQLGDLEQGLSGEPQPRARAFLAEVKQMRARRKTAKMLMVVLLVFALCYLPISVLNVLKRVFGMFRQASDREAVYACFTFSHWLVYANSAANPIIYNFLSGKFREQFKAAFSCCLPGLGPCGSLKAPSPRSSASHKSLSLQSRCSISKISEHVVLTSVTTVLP

Row | Kd (OX2 receptor) | Structure (SMILES) | also measured
1 | > 10 µM | CCOc1cc2c(cc1OC)CCN(CC(=O)NCc1ccccc1)C2Cc1ccc(OC)c(OC)c1 (stereo not shown) [Compound 12, N-benzyl-2-{1-[(3,4-dimethoxyphenyl)methyl]-7-ethoxy-6-methoxy-1,2,3,4-tetrahydroisoquinolin-2-yl}acetamide] | OX2/OX1 (orexin 1 (OX1) receptor): >333
2 | > 10 µM | CCCOc1cc2c(cc1OC)CCN(CC(=O)NCc1ccccc1)C2Cc1ccc(OC)c(OC)c1 (stereo not shown) [Compound 13, N-benzyl-2-{1-[(3,4-dimethoxyphenyl)methyl]-6-methoxy-7-propoxy-1,2,3,4-tetrahydroisoquinolin-2-.yl}acetamide] | OX2/OX1 (orexin 1 (OX1) receptor): >578
3 | 1.76 ± 0.37 µM | COc1ccc(CC2c3cc(OC)c(OC)cc3CCN2CC(=O)Nc2ccccc2-c2ccccc2)cc1OC (stereo not shown) [Compound 44, 2-{1-[(3,4-dimethoxyphenyl)methyl]-6,7-dimethoxy-1,2,3,4-tetrahydroisoquinolin-2-yl}-N-(2-phenylphenyl)acetamide] | –
4 | 2.27 ± 0.11 µM | COc1ccc(CC2c3cc(OC)c(OC)cc3CCN2CC(=O)NCc2ccc(Cl)cc2)cc1OC (stereo not shown) [Compound 51, N-[(4-chlorophenyl)methyl]-2-{1-[(3,4-dimethoxyphenyl)methyl]-6,7-dimethoxy-1,2,3,4-tetrahydroisoquinolin-2-yl}acetamide] | –
5 | 3.46 ± 1 µM | COc1ccc(CC2c3cc(OC)c(OC)cc3CCN2CC(=O)NCc2ccc(F)cc2)cc1OC (stereo not shown) [Compound 52, 2-{1-[(3,4-dimethoxyphenyl)methyl]-6,7-dimethoxy-1,2,3,4-tetrahydroisoquinolin-2-yl}-N-[(4-fluorophenyl)methyl]acetamide] | –

Continued, compound first:

Row | Structure (SMILES) | Kd (OX2 receptor) | also measured
6 | COc1cc2c(cc1O)C(Cc1ccc(OC)c(OC)c1)N(CC(=O)NCc1ccccc1)CC2 (stereo not shown) [Compound 11, N-benzyl-2-{1-[(3,4-dimethoxyphenyl)methyl]-7-hydroxy-6-methoxy-1,2,3,4-tetrahydroisoquinolin-2-yl}acetamide] | 5.74 ± 0.096 µM | –
7 | CCCCOc1cc2c(cc1OC)CCN(CC(=O)NCc1ccccc1)C2Cc1ccc(OC)c(OC)c1 (stereo not shown) [Compound 14, N-benzyl-2-{7-butoxy-1-[(3,4-dimethoxyphenyl)methyl]-6-methoxy-1,2,3,4-tetrahydroisoquinolin-2-yl}acetamide] | 1.89 ± 0.48 µM | –
8 | CCCCCCOc1cc2c(cc1OC)CCN(CC(=O)NCc1ccccc1)C2Cc1ccc(OC)c(OC)c1 (stereo not shown) [Compound 15, N-benzyl-2-{1-[(3,4-dimethoxyphenyl)methyl]-7-(hexyloxy)-6-methoxy-1,2,3,4-tetrahydroisoquinolin-2-yl}acetamide] | > 10 µM | OX2/OX1 (orexin 1 (OX1) receptor): >31.7
9 | COc1ccc(CC2c3cc(OCCC(C)C)c(OC)cc3CCN2CC(=O)NCc2ccccc2)cc1OC (stereo not shown) [Compound 16, N-benzyl-2-{1-[(3,4-dimethoxyphenyl)methyl]-6-methoxy-7-(3-methylbutoxy)-1,2,3,4-tetrahydroisoquinolin-2-yl}acetamide] | 3.92 ± 1.2 µM | –
10 | COc1ccc(CC2c3cc(OCC4CCCCC4)c(OC)cc3CCN2CC(=O)NCc2ccccc2)cc1OC (stereo not shown) [Compound 17, N-benzyl-2-[7-(cyclohexylmethoxy)-1-[(3,4-dimethoxyphenyl)methyl]-6-methoxy-1,2,3,4-tetrahydroisoquinolin-2-yl]acetamide] | – | OX1 activity, bound stated (orexin 1 (OX1) receptor; no activity up to the stated concentration): > 10 µM
11 | COc1ccc(CC2c3cc(OCCCCOc4ccccc4)c(OC)cc3CCN2CC(=O)NCc2ccccc2)cc1OC (stereo not shown) [Compound 24, N-benzyl-2-{1-[(3,4-dimethoxyphenyl)methyl]-6-methoxy-7-(4-phenoxybutoxy)-1,2,3,4-tetrahydroisoquinolin-2-yl}acetamide] | > 10 µM | OX2/OX1 (orexin 1 (OX1) receptor): >230
12 | CCCC(=O)Oc1cc2c(cc1OC)CCN(CC(=O)NCc1ccccc1)C2Cc1ccc(OC)c(OC)c1 (stereo not shown) [Compound 25, 2-[(benzylcarbamoyl)methyl]-1-[(3,4-dimethoxyphenyl)methyl]-6-methoxy-1,2,3,4-tetrahydroisoquinolin-7-yl butanoate] | > 10 µM | OX2/OX1 (orexin 1 (OX1) receptor): >127
13 | COc1ccc(CC2c3cc(OS(C)(=O)=O)c(OC)cc3CCN2CC(=O)NCc2ccccc2)cc1OC (stereo not shown) [Compound 26, 2-[(benzylcarbamoyl)methyl]-1-[(3,4-dimethoxyphenyl)methyl]-6-methoxy-1,2,3,4-tetrahydroisoquinolin-7-yl methanesulfonate] | 2.17 ± 0.79 µM | –
14 | COc1ccc(CC2c3cc(OS(=O)(=O)C(F)(F)F)c(OC)cc3CCN2CC(=O)NCc2ccccc2)cc1OC (stereo not shown) [Compound 27, 2-[(benzylcarbamoyl)methyl]-1-[(3,4-dimethoxyphenyl)methyl]-6-methoxy-1,2,3,4-tetrahydroisoquinolin-7-yl trifluoromethanesulfonate] | > 10 µM | OX2/OX1 (orexin 1 (OX1) receptor): >1000
15 | COc1ccc(CC2c3cc(OS(=O)(=O)c4ccccc4)c(OC)cc3CCN2CC(=O)NCc2ccccc2)cc1OC (stereo not shown) [Compound 29, 2-[(benzylcarbamoyl)methyl]-1-[(3,4-dimethoxyphenyl)methyl]-6-methoxy-1,2,3,4-tetrahydroisoquinolin-7-yl benzenesulfonate] | 2.9 ± 0.191 µM | –
16 | COc1ccc(CC2c3cc(OC)c(OC)cc3CCN2CC(=O)N2CCc3ccccc3C2)cc1OC (stereo not shown) [Compound 35, 2-{1-[(3,4-dimethoxyphenyl)methyl]-6,7-dimethoxy-1,2,3,4-tetrahydroisoquinolin-2-yl}-1-(1,2,3,4-tetrahydroisoquinolin-2-yl)ethan-1-one] | 9 ± 0.76 µM | –
17 | COc1ccc(CC2c3cc(OC)c(OC)cc3CCN2CC(=O)N2CCCC(c3ccccc3)C2)cc1OC (stereo not shown) [Compound 36, 2-{1-[(3,4-dimethoxyphenyl)methyl]-6,7-dimethoxy-1,2,3,4-tetrahydroisoquinolin-2-yl}-1-(3-phenylpiperidin-1-yl)ethan-1-one] | 9.03 ± 3.8 µM | –
18 | COc1ccc(CC2c3cc(OC)c(OC)cc3CCN2CC(=O)Nc2cccc3ccccc23)cc1OC (stereo not shown) [Compound 41, 2-{1-[(3,4-dimethoxyphenyl)methyl]-6,7-dimethoxy-1,2,3,4-tetrahydroisoquinolin-2-yl}-N-(naphthalen-1-yl)acetamide] | – | fold less potent than the benzyl compound (OX1) (orexin 1 (OX1) receptor; relative to compound 6): around 3.6 fold
19 | COc1ccc(CC2c3cc(OC)c(OC)cc3CCN2CC(=O)NC2CCCc3ccccc32)cc1OC (stereo not shown) [Compound 47, 2-{1-[(3,4-dimethoxyphenyl)methyl]-6,7-dimethoxy-1,2,3,4-tetrahydroisoquinolin-2-yl}-N-(1,2,3,4-tetrahydronaphthalen-1-yl)acetamide] | 0.655 ± 0.19 µM | –
20 | COc1ccc(CC2c3cc(OC)c(OC)cc3CCN2CC(=O)NCc2ccc(NC(C)=O)cc2)cc1OC (stereo not shown) [Compound 57, 2-{1-[(3,4-dimethoxyphenyl)methyl]-6,7-dimethoxy-1,2,3,4-tetrahydroisoquinolin-2-yl}-N-[(4-acetamidophenyl)methyl]acetamide] | – | OX1 activity in words (orexin 1 (OX1) receptor; no concentration given): total loss of OX1 activity
21 | CCCCCCNC(=O)Nc1ccc(CNC(=O)CN2CCc3cc(OC)c(OC)cc3C2Cc2ccc(OC)c(OC)c2)cc1 (stereo not shown) [Compound 59, 2-{1-[(3,4-dimethoxyphenyl)methyl]-6,7-dimethoxy-1,2,3,4-tetrahydroisoquinolin-2-yl}-N-({4-[(hexylcarbamoyl)amino]phenyl}methyl)acetamide] | 2.44 ± 0.67 µM | –
22 | CCCCCCCNC(=O)CN1CCc2cc(OC)c(OC)cc2C1Cc1ccc(OC)c(OC)c1 (stereo not shown) [Compound 60, 2-{1-[(3,4-dimethoxyphenyl)methyl]-6,7-dimethoxy-1,2,3,4-tetrahydroisoquinolin-2-yl}-N-heptylacetamide] | 2.31 ± 0.54 µM | –
